Experimental data from PubChem BioAssay (NCI).
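Results reflect a 48-hour exposure of cells in 96-well plates to compound at five concentrations. At the TGI there is no net growth.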

Assays:
Assay in all cases: growth of human tumour cells (NCI), 48 h
786-0 renal = test system: 786-0 renal
A498 renal = test system: A498 renal
A549 NSCLC = test system: A549 NSCLC
ACHN renal = test system: ACHN renal
CCRF-CEM leukemia = test system: CCRF-CEM leukemia
COLO 205 colon = test system: COLO 205 colon
DLD-1 colon = test system: DLD-1 colon
DMS 114 small cell lung = test system: DMS 114 small cell lung
EKVX NSCLC = test system: EKVX NSCLC
HCC-2998 colon = test system: HCC-2998 colon
HCT-116 colon = test system: HCT-116 colon
HCT-15 colon = test system: HCT-15 colon
HOP-18 NSCLC = test system: HOP-18 NSCLC
HOP-62 NSCLC = test system: HOP-62 NSCLC
HOP-92 NSCLC = test system: HOP-92 NSCLC
HT29 colon = test system: HT29 colon
K-562 leukemia = test system: K-562 leukemia
KM12 colon = test system: KM12 colon
KM20L2 colon = test system: KM20L2 colon
LOX IMVI melanoma = test system: LOX IMVI melanoma
LXFL 529 NSCLC = test system: LXFL 529 NSCLC
M14 melanoma = test system: M14 melanoma
M19-MEL melanoma = test system: M19-MEL melanoma
MALME-3M melanoma = test system: MALME-3M melanoma
MOLT-4 leukemia = test system: MOLT-4 leukemia
NCI-H226 lung = test system: NCI-H226 lung
NCI-H23 lung = test system: NCI-H23 lung
NCI-H460 lung = test system: NCI-H460 lung
NCI-H522 lung = test system: NCI-H522 lung
OVCAR-3 ovarian = test system: OVCAR-3 ovarian
OVCAR-4 ovarian = test system: OVCAR-4 ovarian
OVCAR-5 ovarian = test system: OVCAR-5 ovarian
OVCAR-8 ovarian = test system: OVCAR-8 ovarian
RXF 393 renal = test system: RXF 393 renal
SF-268 CNS = test system: SF-268 CNS
SF-295 CNS = test system: SF-295 CNS
SF-539 CNS = test system: SF-539 CNS
SK-MEL-2 melanoma = test system: SK-MEL-2 melanoma
SK-MEL-28 melanoma = test system: SK-MEL-28 melanoma
SK-MEL-5 melanoma = test system: SK-MEL-5 melanoma
SK-OV-3 ovarian = test system: SK-OV-3 ovarian
SN12C renal = test system: SN12C renal
SNB-19 CNS = test system: SNB-19 CNS
SNB-75 CNS = test system: SNB-75 CNS
SNB-78 CNS = test system: SNB-78 CNS
SW-620 colon = test system: SW-620 colon
TK-10 renal = test system: TK-10 renal
U251 CNS = test system: U251 CNS
UACC-257 melanoma = test system: UACC-257 melanoma
UACC-62 melanoma = test system: UACC-62 melanoma
UO-31 renal = test system: UO-31 renal
XF 498 CNS = test system: XF 498 CNS

Measured: TGI

C/C(=N\OCC(O)CNC(C)C)c1ccc2c(c1)NC(=O)CS2 (configuration not stated)
> 100 µM: all assays above
